Experimental data published in patent US20130315825A1, “TRICYCLIC HETEROAROMATIC COMPOUNDS AS ALPHA-SYNUCLEIN LIGANDS” (Washington University, priority 2012, published 2013).
Like-named read-outs stand apart in the source and are kept apart here. Each block holds one compound with its values, some of them ahead of it.

Columns and labels:
[1] = Ex vivo biodistribution in Sprague-Dawley rats; conditions: for brain uptake: male SD rats (n=4);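 for all read-outs here: four rats in each time-point group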
α-synuclein fibrils [2] = target: T1, α-synuclein fibrils (Homo sapiens, UniProt P37840); experiment: ThT competitive binding assay with α-synuclein fibrils
Aβ1-42 fibrils [3] = target: T2, Aβ1-42 fibrils (Homo sapiens, UniProt P05067); experiment: [125I]SIL23 saturation binding, synthetic Aβ1-42 fibrils
T2 construct: Synthetic Aβ1-42 peptide (1 mg) (Bachem, Torrance, Calif.); purchased Bachem, Torrance, Calif; host or cells: synthetic peptide
T2 sequence (P05067 672-713 limits assumed): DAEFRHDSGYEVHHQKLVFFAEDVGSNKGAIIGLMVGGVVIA

tau fibrils = target: T3, tau fibrils (Homo sapiens, UniProt P10636); experiment: [125I]SIL23 saturation binding, recombinant tau fibrils
T3 construct: made in house; host or cells: BL21(DE3)RIL E. coli
T3 sequence (P10636 560-692): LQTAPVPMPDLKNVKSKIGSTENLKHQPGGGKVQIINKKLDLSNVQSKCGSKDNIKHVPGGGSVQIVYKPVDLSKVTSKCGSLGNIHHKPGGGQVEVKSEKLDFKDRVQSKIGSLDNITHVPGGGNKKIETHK
Protocol: Recombinant tau protein was produced in E. Coli.
Filters containing the bound ligand were mixed with 150 μl of Optiphase Supermix scintillation cocktail (PerkinElmer) and counted immediately. All data points were performed in triplicate.

Aβ plaques in AD brain = conditions: cited from earlier work; for Kd: binding to Aβ plaques
α-synuclein fibrils [4] = target: T1, α-synuclein fibrils; conditions: [125I]SIL23 competition, 95% confidence intervals in parentheses
[5] = target: Human PD brain homogenate (Homo sapiens, UniProt P37840); conditions: [125I]SIL23 competition, human PD brain homogenate (insoluble fraction); 95% confidence intervals in parentheses
Aβ1-42 fibrils [6] = target: T2, Aβ1-42 fibrils; experiment: [125I]SIL23 competitive binding assay, Aβ1-42 fibrils; conditions: [125I]SIL23 competition, 95% confidence intervals in parentheses

SMILES: COc1ccc2c(c1)Sc1cccnc1N2 [TZ5B-95-1, 7-methoxy-10H-benzo[b]pyrido[2,3-e][1,4]thiazine]
IC50 (α-synuclein fibrils [2]): 6624 ± 1.4 nM | Ki (α-synuclein fibrils [2]): 1590 nM

SMILES: COc1ccc2c(c1)Nc1c(cccc1[N+](=O)[O-])O2 [TZ-2-52, 8-methoxy-1-nitro-10H-phenoxazine]
IC50 (α-synuclein fibrils [2]): 500.9 ± 1.1 nM | Ki (α-synuclein fibrils [2]): 120 nM

SMILES: CC(=O)N1c2ccccc2N(C(C)=O)c2ccccc21 [TZ16-147-3, 1,1′-(phenazine-5,10-diyl)diethanone]
Ki (α-synuclein fibrils [2]): > 1000 nM

SMILES: CNc1ccc(/C=C/c2ccc(OCCOCCOCCF)nc2)cc1 [AV-45]
average Bmax / binding site density (Aβ plaques in AD brain; AV-45 binding in AD brain): 8.8 pmol/mg protein | Kd (Aβ plaques in AD brain): 3.7 nM

SMILES: CNc1ccc(-c2nc3ccc(O)cc3s2)cc1 [PIB]
Ki (α-synuclein fibrils [4]): 116 nM | Ki [5]: 99.2 nM | average Bmax / binding site density (Aβ plaques in AD brain; PiB binding in AD brain): 1407 pmol/g wet weight | Kd (Aβ plaques in AD brain): 2.5 nM

SMILES: COc1ccc2c(c1)Sc1cnccc1N2 [TZ5B-79-1-1, 8-methoxy-5H-benzo[b]pyrido[4,3-e][1,4]thiazine]
IC50 (α-synuclein fibrils [2]): 2231 ± 1.2 nM | Ki (α-synuclein fibrils [2]): 536 nM

SMILES: COc1ccc2c(c1)Oc1cc([N+](=O)[O-])cnc1N2 [TZ-2-48, 7-methoxy-3-nitro-10H-benzo[b]pyrido[2,3-e][1,4]-oxazine]
IC50 (α-synuclein fibrils [2]): 111.8 ± 1.1 nM | Ki (α-synuclein fibrils [2]): 26.8 nM

SMILES: COc1cccc2c1N(C(C)=O)c1ccc(C(F)(F)F)cc1S2 [TZ5B-145-2, 1-(1-methoxy-7-(trifluoromethyl)-10H-phenothiazin-10-yl)ethanone]
IC50 (α-synuclein fibrils [2]): 1048 ± 1.9 nM | Ki (α-synuclein fibrils [2]): 252 nM

SMILES: CN(C)c1ncc(/C=C/c2nc3ccc(OCCF)cc3o2)s1 [BF227]
Ki (α-synuclein fibrils [4]): 39.7 nM | Ki [5]: 138 nM

SMILES: O=C(O)c1cc(/N=N/c2ccc(-c3ccc(/N=N/c4ccc(O)c(C(=O)O)c4)cc3)cc2)ccc1O [Chrysamine G]
Ki (α-synuclein fibrils [4]): 432 nM | Ki [5]: 367 nM

SMILES: COc1ccc2c(c1)Sc1cc(C(F)(F)F)ccc1N2 [TZ5B-71, 3-methoxy-7-(trifluoromethyl)-10H-phenothiazine]
IC50 (α-synuclein fibrils [2]): 742.7 ± 1.1 nM | Ki (α-synuclein fibrils [2]): 178 nM

SMILES: COc1ccc2c(c1)Nc1ccc(C(F)(F)F)cc1S2 [TZ5B-159-1, 2-methoxy-7-(trifluoromethyl)-10H-phenothiazine]
IC50 (α-synuclein fibrils [2]): 1082 ± 2.4 nM | Ki (α-synuclein fibrils [2]): 260 nM

The remaining lines, values ahead:

Biodistribution ([1]; blood, 5 min, male Sprague-Dawley rats): 0.553 ± 0.047 I.D. %/gram | Biodistribution ([1]; blood, 30 min, male Sprague-Dawley rats): 0.589 ± 0.016 I.D. %/gram | Biodistribution ([1]; blood, 60 min, male Sprague-Dawley rats): 0.606 ± 0.035 I.D. %/gram | Biodistribution ([1]; blood, 120 min, male Sprague-Dawley rats): 0.585 ± 0.046 I.D. %/gram | defluorination ([1]; bone uptake from 5 to 60 min): no defluorination was observed | Biodistribution ([1]; bone, 5 min, male Sprague-Dawley rats): 0.340 ± 0.027 I.D. %/gram | Biodistribution ([1]; bone, 30 min, male Sprague-Dawley rats): 0.309 ± 0.020 I.D. %/gram | Biodistribution ([1]; bone, 60 min, male Sprague-Dawley rats): 0.407 ± 0.043 I.D. %/gram | Biodistribution ([1]; bone, 120 min, male Sprague-Dawley rats): 0.644±0.071 I.D. %/gram | brain uptake ([1]; 5 min post i.v. injection): 0.758±0.013 % I.D./g | brain uptake ([1]; 30 min post i.v. injection): 0.465±0.018 % I.D./g | brain uptake ([1]; 60 min post i.v. injection): 0.410±0.030 % I.D./g | brain uptake ([1]; 120 min post i.v. injection): 0.359±0.016 % I.D./g | Biodistribution ([1]; fat, 5 min, male Sprague-Dawley rats): 0.255 ± 0.037 I.D. %/gram | Biodistribution ([1]; fat, 30 min, male Sprague-Dawley rats): 0.425 ± 0.023 I.D. %/gram | Biodistribution ([1]; fat, 60 min, male Sprague-Dawley rats): 0.371 ± 0.067 I.D. %/gram | Biodistribution ([1]; fat, 120 min, male Sprague-Dawley rats): 0.293 ± 0.048 I.D. %/gram | Biodistribution ([1]; heart, 5 min, male Sprague-Dawley rats): 0.757 ± 0.033 I.D. %/gram | Biodistribution ([1]; heart, 30 min, male Sprague-Dawley rats): 0.505 ± 0.015 I.D. %/gram | Biodistribution ([1]; heart, 60 min, male Sprague-Dawley rats): 0.466 ± 0.040 I.D. %/gram | Biodistribution ([1]; heart, 120 min, male Sprague-Dawley rats): 0.410 ± 0.030 I.D. %/gram | Biodistribution ([1]; kidney, 5 min, male Sprague-Dawley rats): 1.070 ± 0.058 I.D. %/gram | Biodistribution ([1]; kidney, 30 min, male Sprague-Dawley rats): 0.988 ± 0.090 I.D. %/gram | Biodistribution ([1]; kidney, 60 min, male Sprague-Dawley rats): 0.678 ± 0.032 I.D. %/gram | Biodistribution ([1]; kidney, 120 min, male Sprague-Dawley rats): 0.659 ± 0.027 I.D. %/gram | Biodistribution ([1]; liver, 5 min, male Sprague-Dawley rats): 1.626±0.221 I.D. %/gram | Biodistribution ([1]; liver, 30 min, male Sprague-Dawley rats): 0.847 ± 0.027 I.D. %/gram | Biodistribution ([1]; liver, 60 min, male Sprague-Dawley rats): 0.561 ± 0.028 I.D. %/gram | Biodistribution ([1]; liver, 120 min, male Sprague-Dawley rats): 0.467 ± 0.023 I.D. %/gram | Biodistribution ([1]; lung, 5 min, male Sprague-Dawley rats): 0.833 ± 0.053 I.D. %/gram | Biodistribution ([1]; lung, 30 min, male Sprague-Dawley rats): 0.561 ± 0.021 I.D. %/gram | Biodistribution ([1]; lung, 60 min, male Sprague-Dawley rats): 0.491 ± 0.030 I.D. %/gram | Biodistribution ([1]; lung, 120 min, male Sprague-Dawley rats): 0.436 ± 0.018 I.D. %/gram | ability to cross the blood-brain-barrier (BBB) ([1]; male Sprague-Dawley rats, i.v.): able to cross BBB | Biodistribution ([1]; muscle, 5 min, male Sprague-Dawley rats): 0.430 ± 0.031 I.D. %/gram | Biodistribution ([1]; muscle, 30 min, male Sprague-Dawley rats): 0.451 ± 0.018 I.D. %/gram | Biodistribution ([1]; muscle, 60 min, male Sprague-Dawley rats): 0.376 ± 0.019 I.D. %/gram | Biodistribution ([1]; muscle, 120 min, male Sprague-Dawley rats): 0.315 ± 0.015 I.D. %/gram | Biodistribution ([1]; pancreas, 5 min, male Sprague-Dawley rats): 1.004 ± 0.147 I.D. %/gram | Biodistribution ([1]; pancreas, 30 min, male Sprague-Dawley rats): 0.546 ± 0.068 I.D. %/gram | Biodistribution ([1]; pancreas, 60 min, male Sprague-Dawley rats): 0.409 ± 0.029 I.D. %/gram | Biodistribution ([1]; pancreas, 120 min, male Sprague-Dawley rats): 0.330 ± 0.021 I.D. %/gram | Biodistribution ([1]; spleen, 5 min, male Sprague-Dawley rats): 0.672 ± 0.064 I.D. %/gram | Biodistribution ([1]; spleen, 30 min, male Sprague-Dawley rats): 0.509 ± 0.022 I.D. %/gram | Biodistribution ([1]; spleen, 60 min, male Sprague-Dawley rats): 0.446 ± 0.038 I.D. %/gram | Biodistribution ([1]; spleen, 120 min, male Sprague-Dawley rats): 0.398 ± 0.019 I.D. %/gram
SMILES: O=[N+]([O-])c1ccc2c(c1)Sc1cc(OCC[18F])ccc1N2 [[^18F]SIL26]

Bmax (Aβ1-42 fibrils [3]; Aβ1-42 fibrils): 23.7 pmol/nmol | Kd (Aβ1-42 fibrils [3]; Aβ1-42 fibrils): 635 nM | affinity lower than that observed for α-synuclein fibrils (Aβ1-42 fibrils [3]; Aβ1-42 fibrils versus α-synuclein fibrils): 5 fold | Bmax (tau fibrils; tau fibrils): 4.57 pmol/nmol | Kd (tau fibrils; tau fibrils): 230 nM | affinity lower than α-synuclein fibrils (tau fibrils; tau fibrils versus α-synuclein fibrils): approximately 2 fold
SMILES: O=[N+]([O-])c1ccc2c(c1)Sc1cc(OC/C=C/[125I])ccc1N2 [[^125I]SIL23]

IC50 (α-synuclein fibrils [2]): 39.6 ± 1.2 nM | Ki (α-synuclein fibrils [2]): 9.5 nM
SMILES: COc1ccc2c(c1)Nc1ccc([N+](=O)[O-])cc1O2 [TZ-2-39, 2-methoxy-7-nitro-10H-phenoxazine]

IC50 (α-synuclein fibrils [2]): 106.9 ± 1 nM | Ki (α-synuclein fibrils [2]): 25.7 nM
SMILES: COc1ccc2c(c1)Oc1cc([N+](=O)[O-])ccc1N2 [TZ-2-33, 3-methoxy-7-nitro-10H-phenoxazine]

Ki (Aβ1-42 fibrils [6]): 110 nM
SMILES: COc1ccc2c(c1)Sc1cc([N+](=O)[O-])ccc1N2 [SIL5, 3-methoxy-7-nitro-10H-phenothiazine]

Ki (α-synuclein fibrils [2]): > 1000 nM
SMILES: COc1ccc2c(c1)Nc1cc([N+](=O)[O-])ccc1N2 [TZ16-133-2, 2-methoxy-8-nitro-5,10-dihydrophenazine]

IC50 (α-synuclein fibrils [2]): 686.9 ± 1.2 nM | Ki (α-synuclein fibrils [2]): 165 nM
SMILES: COc1ccc2c(c1)Oc1cccc([N+](=O)[O-])c1N2 [TZ-2-54, 7-methoxy-1-nitro-10H-phenoxazine]

IC50 (α-synuclein fibrils [2]): 152 ± 1.1 nM | Ki (α-synuclein fibrils [2]): 36.5 nM
SMILES: COc1ccc2c(c1)Nc1ccc([N+](=O)[O-])cc1S2 [TZ10-1-2-1, 2-methoxy-7-nitro-10H-phenothiazine]

IC50 (α-synuclein fibrils [2]): 1426 ± 1.2 nM | Ki (α-synuclein fibrils [2]): 342 nM
SMILES: COc1cccc2c1Nc1ccc([N+](=O)[O-])cc1S2 [TZ10-27-1, 1-methoxy-7-nitro-10H-phenothiazine]
